Assay results from patent US20230174488A1 (priority 2020, published 2023).
Read-outs that look alike come from different tables or passages of the source.

Key:
SARS-CoV-2 M^PRO = SARS-CoV-2 M^PRO (Severe acute respiratory syndrome coronavirus 2, UniProt P0DTD1); experiment: biochemical; format: biochemical
SARS-CoV-2 = experiment: In vitro antiviral cell-based assay (live SARS-CoV-2 IFA) in Vero cells; details: Severe acute respiratory syndrome coronavirus 2, MOI ~0.0125, 24 hpi
in vitro = details: African green monkey
[1] = In vitro potency data, 30 min pre-incubation, 25 nM M^pro, 25 µM substrate, read-out: IC50

SMILES | IC50 (SARS-CoV-2 M^PRO; [1]) | EC50 (SARS-CoV-2) | CC50 at 24 h (in vitro) | IC50 (SARS-CoV-2 M^PRO; SARS-CoV-2 M^pro IC50′ nM, General summary table)
O=C(NC1CCC(F)(F)CC1)C(c1cnccn1)N(C(=O)CCl)c1ccc(-c2ccns2)cc1 (stereo not drawn) [INSCoV-601I, 2-Chloro-N-(2-((4,4-difluorocyclohexyl)amino)-2-oxo-1-(pyrazin-2-yl)ethyl)-N-(4-(isothiazol-5-yl)phenyl)acetamide] | 62 nM | 11.1 µM | – | –
O=C(NC1CCC(F)(F)CC1)C(c1cncnc1)N(C(=O)CCl)c1ccc(-c2cncs2)cc1 (stereo not drawn) [INSCoV-600K, 2-Chloro-N-(2-((4,4-difluorocyclohexyl)amino)-2-oxo-1-(pyrimidin-5-yl)ethyl)-N-(4-(thiazol-5-yl)phenyl)acetamide] | 78 nM | 14.5 µM | – | –
O=C(NC1CCC(F)(F)CC1)C(c1cncnc1)N(C(=O)CCl)c1ccc(-c2ccno2)cc1 (single isomer, unassigned) [INSCoV-600J(1), 2-Chloro-N-(2-((4,4-difluorocyclohexyl)amino)-2-oxo-1-(pyrimidin-5-yl)ethyl)-N-(4-(isoxazol-5-yl)phenyl)acetamide] | 63 nM | 14.2 µM | – | –
O=C(NC1CCC(F)(F)CC1)[C@@H](c1cncnc1)N(C(=O)[C@@H](F)Cl)c1ccc(-c2ccno2)cc1 (single isomer, unassigned) [INSCoV-614A(2A), 2-Chloro-N-(2-((4,4-difluorocyclohexyl)amino)-2-oxo-1-(pyrimidin-5-yl)ethyl)-2-fluoro-N-(4-(isoxazol-5-yl)phenyl)acetamide] | 180 nM | 4.25 µM | – | –
N#Cc1cc(OC(F)(F)F)ccc1N(C(=O)CCl)C(C(=O)NC1CCC(F)(F)CC1)c1cncnc1 (stereo not drawn) [INSCoV-517A, 2-chloro-N-(2-cyano-4-(trifluoromethoxy)phenyl)-N-(2-((4,4-difluorocyclohexyl)amino)-2-oxo-1-(pyrimidin-5-yl)ethyl)acetamide] | 90 nM | 11.1 µM | – | –
N#Cc1cc(OC(F)(F)F)ccc1N(C(=O)CCl)C(C(=O)NC1CCCCC1)c1cccnc1 (stereo not drawn) [INSCoV-517] | 240 nM | 3.22 µM | > 50 µM | –
O=C(NC1CCC(F)(F)CC1)C(c1cnccn1)N(C(=O)CCl)c1ccc(-c2cncs2)cc1 (stereo not drawn) [INSCoV-601G, 2-Chloro-N-(2-((4,4-difluorocyclohexyl)amino)-2-oxo-1-(pyrazin-2-yl)ethyl)-N-(4-(thiazol-5-yl)phenyl)acetamide] | 80 nM | 10.2 µM | – | –
N#Cc1cc(OC(F)(F)F)ccc1N(C(=O)CCl)C(C(=O)NC1CCC(F)(F)CC1)c1cnccn1 (stereo not drawn) [INSCoV-517B] | 170 nM | – | – | –
O=C(NC1CCC(F)(F)CC1)C(c1cnccn1)N(C(=O)CCl)c1ccc(-c2ccns2)cc1 (single isomer, unassigned) [INSCoV-601I(2), 2-chloro-N-(2-((4,4-difluorocyclohexyl)amino)-2-oxo-1-(pyrazin-2-yl)ethyl)-N-(4-(isothiazol-5-yl)phenyl)acetamide] | 210 nM | – | – | –
O=C(N[C@H]1CCOC1)[C@H](c1cncnc1)N(C(=O)CCl)c1ccc(-c2cnco2)cc1 [INSCoV-600C(1B)] | 310 nM | – | – | –
O=C(NC1CCC(F)(F)CC1)[C@H](c1cncnc1)N(C(=O)[C@H](F)Cl)c1ccc(-c2cncs2)cc1 (single isomer, unassigned) [INSCoV-614(2A), 2-Chloro-N-(2-((4,4-difluorocyclohexyl)amino)-2-oxo-1-(pyrimidin-5-yl)ethyl)-2-fluoro-N-(4-(thiazol-5-yl)phenyl)acetamide] | 6940 nM | – | – | –
CC(C)(C)NC(=O)C(c1cccnc1)N(C(=O)CCl)c1ccc(C(C)(C)C)cc1 (stereo not drawn) [INSCoV-534, N-(Tert-Butyl)-2-(N-(4-(Tert-Butyl)Phenyl)-2-Chloroacetamido)-2-(Pyridin-3-yl)Acetamide] | 1280 nM | – | – | –
O=C(NC1CCCCC1)C(c1cccnc1)N(CCc1ccccc1)C(=O)CCl (stereo not drawn) [INSCoV-503] | 980 nM | – | – | –
O=C(NC1CCCCC1)C(c1cccnc1)N(CCc1c[nH]c2ccncc12)C(=O)CCl (stereo not drawn) [INSCoV-516] | 1180 nM | – | – | –
O=C(NC1CCC(F)(F)CC1)C(c1cncnc1)N(C(=O)CCl)c1ccc(-c2cncs2)cc1 (single isomer, unassigned) [2-Chloro-N-(2-((4,4-difluorocyclohexyl)amino)-2-oxo-1-(pyrimidin-5-yl)ethyl)-N-(4-(thiazol-5-yl)phenyl)acetamide] | 50 nM | 11.4 µM | – | 50 nM
O=C(NC1CCOCC1)C(c1cncnc1)N(C(=O)CCl)c1ccc(-c2cnco2)cc1 (stereo not drawn) [INSCoV-600A(2), 2-Chloro-N-(4-(Oxazol-5-yl)Phenyl)-N-(2-Oxo-1-(Pyrimidin-5-yl)-2-((Tetrahydro-2H-Pyran-4-yl)Amino)Ethyl)Acetamide] | 430 nM | – | – | –
N#Cc1cc(OC(F)(F)F)ccc1N(C(=O)C(F)Cl)C(C(=O)NC1CCC(F)(F)CC1)c1cncnc1 (single isomer, unassigned) [INSCoV-517C(1), 2-Chloro-N-(2-cyano-4-(trifluoromethoxy)phenyl)-N-(2-((4,4-difluorocyclohexyl)amino)-2-oxo-1-(pyrimidin-5-yl)ethyl)-2-fluoroacetamide] | 11200 nM | – | – | –
CCN(CC)CCCC(C)Nc1ccnc2cc(Cl)ccc12 (stereo not drawn) [Chloroquine, chloroquine, reference compound] | – | 7.35 µM | – | –
CC(C)(C)c1ccc(N(C(=O)C=O)C(C(=O)NC2CCCCC2)c2cccnc2)cc1 (stereo not drawn) [INSCoV-110D] | > 50000 nM | – | – | –
O=C(NC1CCC(F)(F)CC1)C(c1cncnc1)N(C(=O)C(F)Cl)c1ccc(-c2cncs2)cc1 (stereo not drawn) [INSCoV-614, 2-Chloro-N-(2-((4,4-difluorocyclohexyl)amino)-2-oxo-1-(pyrimidin-5-yl)ethyl)-2-fluoro-N-(4-(thiazol-5-yl)phenyl)acetamide] | 330 nM | – | – | –
